Several values for one entry are separate records, joined by “and”; a condition that tells them apart may be missing. Equal values may be shown once.
What was measured:
[1] = system: A431, human epidermoid carcinoma cells; experiment: Cell cycle analysis (FACS), mitotic arrest in G2/M; assay type: cell-based; conditions: Homo sapiens, A-431, 24 h, read-out: FACS Assay: concentration required to achieve inhibition in FACS assay
Experimental: The cell cycle analysis was performed as follows. Cancer cells (A431, human epidennoid carcinoma cells) were maintained in culture in D-MEM media with 10% FBS and 1 mg/ml glutamate. Prior to experiment, cells were plated onto 6-well plates for a final density of 500,000 cells/well at the time of treatment. Cells were treated with the compounds of the invention at a concentration of about 0.01 to 1 μM final concentrations (final 0.1% DMSO) for 24 hours, then trypsinized, collected, rinsed in PBS (phosphate buffered saline), and fixed in 70% cold ethanol overnight at 4° C. The cells were then rinsed with PBS, resuspended in PBS with 0.2% Tween, RNAse was added (final 1 μg/ml), cells were incubated at 37° C. for 15 min, followed by addition of Propidium Iodide (final 50 μg/ml), and a 30 minute incubation at room temperature. DNA ploidy was analyzed using flow cytometers (Epics Excel, Beckman-Coulter, or Guava PCA-96, Guava Technologies) and mitotic arrest characterized by massive accumulation of cells in the G2/M phase of cell cycle.
Cancer cells (A431, human epidermoid cells) were maintained in culture in D-MEM media with 10% FBS and 1 mg/ml glutamate. Prior to experiment, cells are plated onto 6-well plates for a final density of 500,000 cells/well at the time of treatment. Cells were treated with compounds at 0.01-1 μM final concentrations (final […] DMS 0) for 24 hours, then trypsinized, collected, rinsed in PBS (phosphate buffered saline), and fixed in 70% cold ethanol overnight at 4° C. Cells were then rinsed with PBS, resuspended in PBS with 0.2% Tween, RNAse was added (final 1 μg/ml), cells were incubated at 37° C. for 15 min, followed by addition of Propidium Iodide (final 50 μg/ml), and a 30 minute incubation at room temperature. DNA ploidy was analyzed using cell sorters (Epics Excel, Beckman-Coulter, or Guava PCA-96, Guava Technologies) and mitotic arrest characterized by massive accumulation of cells in the G2/M phase of cell cycle.

bovine tubulin = experiment: In vitro tubulin polymerization assay (turbidity at 340 nm); assay type: biochemical; conditions: 10 μM compound, 30 minute data point, vs 1% DMSO control
How it was run: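 Bovine tubulin (97%, <3% MAPs) at 3 mg/ml final in G-PEM pH 7 with 1 mM GTP and 5% glycerol, added cold to compound wells at 37° C (1% DMSO final). A340 read each minute for 30 min; percent inhibition from 30-min point versus DMSO control.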

| Structure (SMILES) | minimal effective concentration [1] [µM] | Tubulin Assay: percent inhibition at 10 μM based on 30 minute data (bovine tubulin) |
| --- | --- | --- |
| COc1cccc(Nc2nnc(-c3cccnc3NCc3ccco3)[nH]2)c1 [Compound 42, Furan-2-ylmethyl-{3-[5-(3-methoxy-phenylamino)-4H-[1,2,4]triazol-3-yl]-pyridin-2-yl}-amine] | 10 | 69% |
| c1cnc(OCc2ccc3c(c2)OCO3)c(-c2nnc(Nc3ccc4c(c3)OCCO4)o2)c1 [Compound 209, {5-[2-(Benzo[1,3]dioxol-5-ylmethoxy)-pyridin-3-yl]-[1,3,4]oxadiazol-2-yl}-(2,3-dihydro-benzo[1,4]dioxin-6-yl)-amine] | 1 | 80% |
| COc1ccc(CNc2nnc(-c3cccnc3Nc3cc(OC)cc(OC)c3)[nH]2)cc1 [Compound 59, (3,5-Dimethoxy-phenyl)-{3-[5-(4-methoxy-benzylamino)-4H-[1,2,4]triazol-3-yl]-pyridin-2-yl}-amine] | 1 | 88% |
| Brc1cnn(-c2ncccc2-c2nnc(Nc3ccc4c(c3)OCO4)o2)c1 [Compound 210, Benzo[1,3]dioxol-5-yl-{5-[2-(4-bromo-pyrazol-1-yl)-pyridin-3-yl]-[1,3,4]oxadiazol-2-yl}-amine] | 1 | 87% |
| Brc1ccc(-c2nnc(-c3ccccc3NCc3ccc4[nH]ncc4c3)[nH]2)cc1 [Compound 145, {2-[5-(4-Bromo-phenyl)-4H-[1,2,4]triazol-3-yl]-phenyl}-(1H-indazol-5-ylmethyl)-amine] | 0.1 | 58% |
| COc1cc(Nc2ncccc2-c2nnc(NCC3CCCO3)[nH]2)cc(OC)c1 (centres unmarked) [Compound 56, (3,5-Dimethoxy-phenyl)-(3-{5-[(tetrahydro-furan-2-ylmethyl)-amino]-4H-[1,2,4]triazol-3-yl}-pyridin-2-yl)-amine] | 1 | 97% |
| c1cnc(NCc2ccc3c(c2)CCO3)c(-c2nnc(Nc3ccc4c(c3)OCCO4)o2)c1 [Compound 199, {3-[5-(2,3-Dihydro-benzo[1,4]dioxin-6-ylamino)-[1,3,4]oxadiazol-2-yl]-pyridin-2-yl}-(2,3-dihydro-benzofuran-5-ylmethyl)-amine] | 0.1 | 88% |
| FC(F)(F)c1ccc(-c2nnc(Nc3ccc4c(c3)OCO4)[nH]2)c(NCc2ccncc2)c1 [Compound 124, Benzo[1,3]dioxol-5-yl-(5-{2-[(pyridin-4-ylmethyl)-amino]-4-trifluoromethyl-phenyl}-4H-[1,2,4]triazol-3-yl)-amine] | 0.1 | 93% |
| c1cncc(CNc2ncccc2-c2nnc(Nc3ccc4c(c3)OCCO4)o2)c1 [Compound 162, {3-[5-(2,3-Dihydro-benzo[1,4]dioxin-6-ylamino)-[1,3,4]oxadiazol-2-yl]-pyridin-2-yl}-pyridin-3-ylmethyl-amine] | 0.01 | 86% |
| c1cnc(NCc2ccncc2)c(-c2nnc(Nc3ccc4c(c3)OCO4)[nH]2)c1 [Compound 38, {3-[5-(Benzo[1,3]dioxol-5-ylamino)-4H-[1,2,4]triazol-3-yl]-pyridin-2-yl}-pyridin-4-ylmethyl-amine] | 0.1 | 77% |
| COc1cccc(Nc2nnc(-c3ccccc3NCc3ccc4[nH]ncc4c3)[nH]2)c1 [Compound 123, (5-{2-[(1H-Indazol-5-ylmethyl)-amino]-phenyl}-4H-[1,2,4]triazol-3-yl)-(3-methoxy-phenyl)-amine] | 1 | 75% |
| CS(=O)(=O)c1ccc(-c2nnc(-c3ccccc3NCc3ccc4c(c3)OCO4)[nH]2)cc1 [Compound 133, Benzo[1,3]dioxol-5-ylmethyl-{2-[5-(4-methanesulfonyl-phenyl)-4H-[1,2,4]triazol-3-yl]-phenyl}-amine] | 1 | 86% |
| COc1cccc(Nc2nnc(-c3cccnc3NCc3ccncc3)[nH]2)c1 [Compound 39, {3-[5-(3-Methoxy-phenylamino)-4H-[1,2,4]triazol-3-yl]-pyridin-2-yl}-pyridin-4-ylmethyl-amine] | 0.1 | 83% |
| COc1cccc(S(=O)(=O)Nc2ccccc2-c2nnc(Nc3ccc4c(c3)OCO4)o2)c1 [Compound 237, N-{2-[5-(Benzo[1,3]dioxol-5-ylamino)-[1,3,4]oxadiazol-2-yl]-phenyl}-3-methoxy-benzenesulfonamide] | 1 | 99% |
| CS(=O)(=O)c1ccc(-c2nnc(-c3cccnc3NCc3ccc(F)c(F)c3)[nH]2)cc1 [Compound 102, (3,4-Difluoro-benzyl)-{3-[5-(4-methanesulfonyl-phenyl)-4H-[1,2,4]triazol-3-yl]-pyridin-2-yl}-amine] | 0.1 | 88% |
| COc1ccc(CNc2ncccc2-c2nnc(Nc3ccc4c(c3)OCCO4)o2)cc1 [Compound 160, {3-[5-(2,3-Dihydro-benzo[1,4]dioxin-6-ylamino)-[1,3,4]oxadiazol-2-yl]-pyridin-2-yl}-(4-methoxy-benzyl)-amine] | 0.1 | 89% |
| COc1cccc(Nc2nnc(-c3cccnc3NCc3ccc(F)c(F)c3)[nH]2)c1 [Compound 45, (3,4-Difluoro-benzyl)-{3-[5-(3-methoxy-phenylamino)-4H-[1,2,4]triazol-3-yl]-pyridin-2-yl}-amine] | 1 | 83% |
| Nc1ccccc1-c1nnc(Nc2ccc3c(c2)OCCO3)o1 [Compound 241, [5-(2-Amino-phenyl)-[1,3,4]oxadiazol-2-yl]-(2,3-dihydro-benzo[1,4]dioxin-6-yl)-amine] | 1 | 75% |
| COc1ccc(CNc2ncccc2-c2nnc(Nc3ccc4c(c3)OCO4)o2)cc1 [Compound 157, {3-[5-(Benzo[1,3]dioxol-5-ylamino)-[1,3,4]oxadiazol-2-yl]-pyridin-2-yl}-(4-methoxy-benzyl)-amine] | 1 | 92% |
| Fc1ccc(CNc2ncccc2-c2nnc(Nc3ccc4c(c3)OCO4)o2)cc1 [Compound 172, {3-[5-(Benzo[1,3]dioxol-5-ylamino)-[1,3,4]oxadiazol-2-yl]-pyridin-2-yl}-(4-fluoro-benzyl)-amine] | 0.1 | 95% and 87% |
| CS(=O)(=O)c1ccc(-c2nnc(-c3cccnc3Nc3cccc(S(N)(=O)=O)c3)[nH]2)cc1 [Compound 92, 3-{3-[5-(4-Methanesulfonyl-phenyl)-4H-[1,2,4]triazol-3-yl]-pyridin-2-ylamino}-benzenesulfonamide] | 10 | 74% |
| Fc1ccc(CNc2ncccc2-c2nnc(Nc3ccc4c(c3)OCO4)[nH]2)cc1F [Compound 43, {3-[5-(Benzo[1,3]dioxol-5-ylamino)-4H-[1,2,4]triazol-3-yl]-pyridin-2-yl}-(3,4-difluoro-benzyl)-amine] | 1 | 84% |
| COc1cccc(Nc2nnc(-c3cccnc3OCc3ccc4c(c3)OCO4)[nH]2)c1 [Compound 73, {5-[2-(Benzo[1,3]dioxol-5-ylmethoxy)-pyridin-3-yl]-4H-[1,2,4]triazol-3-yl}-(3-methoxy-phenyl)-amine] | 1 | 70% |
| O=S(=O)(Nc1ccccc1-c1nnc(Nc2ccc3c(c2)OCCO3)[nH]1)c1cccc(OC(F)(F)F)c1 [Compound 127, N-{2-[5-(2,3-Dihydro-benzo[1,4]dioxin-6-ylamino)-4H-[1,2,4]triazol-3-yl]-phenyl}-3-trifluoromethoxy-benzenesulfonamide] | 10 | 61% |
| c1cnc(OCc2ccc3c(c2)OCO3)c(-c2nnc(Nc3ccc4c(c3)OCO4)[nH]2)c1 [Compound 72, Benzo[1,3]dioxol-5-yl-{5-[2-(benzo[1,3]dioxol-5-ylmethoxy)-pyridin-3-yl]-4H-[1,2,4]triazol-3-yl}-amine] | 0.1 | 100% |

Reference: patent US20090048301A1 (IMCLONE SYSTEMS INCORPORATED, priority 2003, published 2009)
